In US7205307B2, “Pyrimidines as novel openers of potassium ion channels” (Icagen, Inc., priority 2002, dated 2007):

test system: voltage gated K+ channels; experiment: test assay chosen for cells expressing voltage gated K+ channels (opening of voltage-gated potassium channels); format: cell-based; conditions: relative potency
Method: Utilizing screening assays such as described above, compounds of the invention were tested for their ability to open voltage-gated potassium channels. The results of these assays are set forth in Table 1 in which the data are presented in terms of relative potency of the compounds tested to one another.
This example illustrates screening protocols for evaluating putative potassium channel agonists for the ability to open voltage-gated potassium channels.
NG108-15 cells, a mouse neuroblastoma, rat glioma hybrid cell line, functionally express M-currents (Robbins et al., J. Physiol. 451: 159–85 (1992). NG108-15 M-currents are likely comprised, at least in part, of KCNQ2, KCNQ3 and KCNQ5, since these genes are reportedly robustly expressed in differentiated NG108-15 cells (Selyanko et al., J. Neurosci. 19(18): 7742–56 (1999); Schroeder et al., J. Biol. Chem. 275(31): 24089–95 (2000)) and KCNQ3 dominant- negative constructs reduce M-current density in these cells (Selyanko et al., J. Neurosci. 22(5): RC212 (2002).
NG108–15 are maintained in DMEM (high glucose) supplemented with 10% fetal bovine serum, 0.05 mM pyridoxine, 0.1 mM hypoxanthine, 400 nM aminopterin, […] thymidine, 50 μgml^−1 gentamycin and 10 mM HEPES, in an incubator at 37° C. with a humidified atmosphere of 5% CO2. Cells are plated in 96 well plates and are differentiated by addition of 10 μM PGE1 and 50 μM isomethylbutylxanthine to the growth media prior to study.
Differentiated NG108–15 cells are loaded with voltage-sensitive dye by incubation in Earls Balanced Salt Solution (EBSS) containing […] DiBAC for 1 h. Following loading, drug solution containing […] DiBAC is added to each well. Changes in fluorescence are measured every 30 s for 25 min. The maximum change in fluorescence is measured and can be expressed as a percentage of the maximum response obtained in the presence of a positive control agent.
Alternatively, cells expressing voltage-gated K^+ channels, such as KCNQ2-like channels can be loaded with ^86Rb^+ by culture in media containing ^86RbCl. Following loading, culture media is removed and the cells are washed in EBSS to remove residual traces of ^86Rb^+. Cells are preincubated with drug (0.01–30 μM in EBSS) and then ^86Rb^+ efflux is stimulated by exposing cells to EBSS solution supplemented with a sub-maximal concentration of KCl (generally 7–20 mM) in the continued presence of drug. After a suitable efflux period, the EBSS/KCl solution is removed from the cells and the ^86Rb^+ content can be determined by Cherenkov counting (Wallac Trilux). Cells are then lysed with a SDS solution and the ^86Rb^+ content of the lysate can be determined. Percent ^86Rb^+ efflux is calculated according to: (^86Rb^+ content in EBSS/(^86Rb^+ content in EBSS+^86Rb^+ content of the lysate))*100
Efflux is normalized to the maximal ^86Rb^+ efflux (i.e., that which can be induced by a high concentration of KCl, generally 30–135 mM).

Row | EC50 | Structure (SMILES)
1 | 1000 to 10000 nM | O=C(Nc1cnc(Cl)nc1)c1cccc(F)c1 [Compound 9, N-(2-chloro-pyrimidin-5-yl)-3-fluoro-benzamide]
2 | 1000 to 10000 nM | Cc1ncc(NC(=O)c2ccc(F)c(F)c2)cn1 [Compound 8, 3,4-difluoro-N-(2-methyl-pyrimidin-5-yl)-benzamide]
3 | 500 to 1000 nM | O=C(Nc1cnc(Cl)nc1)c1ccc(Cl)s1 [Compound 20, 5-Chloro-thiophene-2-carboxylic acid (2-chloro-pyrimidin-5-yl)-amide]
4 | 500 to 1000 nM | O=C(Nc1cnc(Cl)nc1)c1ccc(F)c(F)c1 [Compound 4, N-(2-Chloro-pyrimidin-5-yl)-3,4-difluoro-benzamide]
5 | < 500 nM | O=C(Nc1cnc(Cl)nc1)c1ccc(Cl)c(F)c1 [Compound 44, 4-Chloro-N-(2-chloro-pyrimidin-5-yl)-3-fluoro-benzamide]
6 | 1000 to 10000 nM | CC(C)S(=O)(=O)c1ccc(C(=O)Nc2cnc(Cl)nc2)cc1F [Compound 91, N-(5-amino-2-chloro-pyrimidine)-3-fluoro-4-(propane-2-sulfonyl)-benzamide]
7 | 1000 to 10000 nM | O=C(Nc1cnc(Cl)nc1)c1cccc(Cl)c1 [Compound 5, 3-Chloro-N-(2-chloro-pyrimidin-5-yl)-benzamide]
8 | 500 to 1000 nM | Cc1ccc(C(=O)Nc2cnc(Cl)nc2)cc1F [Compound 90, N-(2-Chloro-pyrimidin-5-yl)-3-fluoro-4-methyl-benzamide]
9 | 1000 to 10000 nM | O=C(Nc1cnc(Cl)nc1)c1cccc(C(F)(F)F)c1 [Compound 3, N-(2-chloro-pyrimidin-5-yl)-3-trifluoromethyl-benzamide]
